# Test results from US20170290774A1, “NEUROKININ-1 RECEPTOR ANTAGONIST COMPOSITION FOR TREATMENT OF DISEASES AND CONDITIONS OF THE RESPIRATORY TRACT” (PLUS VITECH, S.L., priority 2014, published 2017).
# Read-outs that look alike come from different tables or passages of the source.
# How the values were obtained:
# [1] = Saturation concentration of NK1 receptor antagonists in olive oil; format: physicochemical; conditions: 25° C.
# Procedure: Each of said mixtures was continuously and gently stirred for 10 minutes at ambient temperature (25° C.) and then maintained at rest for 60 minutes. The saturation concentration was considered to be that which was immediately lower in the aforementioned series than a concentration where deposition was observed, but in which no deposition of the active ingredient was observed.
# [2] = cited from earlier work
# [3] = tested on: TGFβ3; assay: Immunohistochemistry of TGFβ3 in respiratory tract tissue of sodium hypochlorite aerosol-treated rabbits; format: in vivo, New Zealand albino rabbits
# Text: It is known that the factors TGF-α, TGF-β 1, TGF-β 2, TGF-β 3, SPARC, MMP-3; MMP-7, MMP-9, MMP-11, MMP-13 and MMP-14, TGF-β, NF-kB, EGF, MMP-9, VEGF and TNF-α which are produced by lung cells (pneumocytes, fibroblasts and vascular endothelial cells) and inflammatory cells (macrophages, lymphocytes and polymorphonuclear leukocytes) are involved in the pathophysiology and development of said respiratory tract diseases. […] Herein, 27 New Zealand albino rabbits (New Zealand White Rabbit) with an initial average weight about 3 kg were used in this example. All subjects were administered an aerosol of a solution consisting of a mixture of water and sodium hypochlorite (35 g sodium hypochlorite per liter of water) at a rate of 5 mL of said solution by inhalation three times a day for 7 days (days 1 to 7 of experimentation). Subsequently, from days 3 to 7, a group of 3 rabbits (Group 1) was administered an oral dose of 10 mg/kg body weight per day, another group of 3 rabbits (Group 2) was administered an oral dose of 40 mg/kg body weight per day, a third group (Group 3) was administered an oral dose of 80 mg/kg body weight per day and a fourth group (Group 4) was administered an oral dose of 100 mg/kg body weight per day. […] This mixture was administered as an aerosol by inhalation, also from days 3 to 7, to a group of 3 rabbits (group 5) at a dose of 0.05 mg/kg body weight per day, to another group of three rabbits (Group 6) at a dose of 0.1 mg/kg body weight per day, to another group of three rabbits (Group 7) at a dose of 0.2 mg/kg body weight per day and to another group of three rabbits (Group 8) at a dose of 0.4 mg/kg body weight per day. A placebo consisting only of olive oil was administered from days 3 to 7 to a control group of 3 rabbits (placebo group). In parallel, 3 rabbits were kept under identical conditions but were not administered any treatment nor the aforementioned sodium hypochlorite solution (control group). […] On day 7 of the experiment all animals were euthanized and necropsied. […] Samples were taken at the peripheral level of the lung parenchyma, just below the pleural surface. Tissue samples were also taken from the nasal cavity, pharynx, larynx and bronchi. Immunohistochemistry studies were performed for all samples to evaluate the levels of the markers TGF-α, TGF-β 1, TGF-β 2, TGF-β 3 SPARC, MMP-3; MMP-7, MMP-9, MMP-11, MMP-14, TGF-β, TNF-α and VEGF. In said immunohistochemistry studies, a sample of each sample was dehydrated by treatment with increasing concentrations of ethanol and finally xylene. Subsequently said dried samples were embedded in paraffin, thus creating a block. Said paraffin blocks were cut on a microtome to a thickness of 5 μm, and the resulting sections (slices) were placed on slides suitable for conducting immunohistochemistry techniques. Subsequently, the sections were deparaffinised by immersion in xylene and then rehydrated through immersion in a series of solutions containing decreasing concentrations of ethanol and, finally, water. […] The samples were then allowed to cool to room temperature over 10 minutes. Endogenous peroxidase activity was blocked by treatment with 3% hydrogen peroxide over 30 min at room temperature. […] In order to verify the expression of NK1 receptors, the cell samples were incubated in the presence of anti-NK1 antibodies ([…], Sigma-Aldrich) diluted 1:1000 at 4° C. overnight. After this time they were washed in 0.05M Tris buffer at room temperature. Subsequently, Envision System-HRP (Dako) reagents were added for 30 min at room temperature. Once this time had expired, the samples were again washed with 0.05 M Tris buffer, and immunoreactivity was visualized by light microscopy with a chromogenic solution with 3,3'-diaminobenzidine (DAB+; Dako, USA). In order to differentiate the cell nuclei, these were lightly stained with haematoxylin. Samples that were not incubated with the primary antibody, but wherein this was replaced by a non-immune serum were used as negative controls. […]
# [4] = single oral dose of 125 mg of Emend
# [5] = terminal nephropathy with hemodialysis, single dose of 240 mg of Emend
smiles,measurement,setting,value
"C[C@@H](OC1OCCN(Cc2nc(=O)[nH][nH]2)C1c1ccc(F)cc1)c1cc(C(F)(F)F)cc(C(F)(F)F)c1 (stereo in doubt) [Aprepitant, 5-([(2R,3S)-2-((R)-1-[3,5-bis(trifluoromethyl)phenyl]ethoxy)-3-(4-fluorophenyl)morpholino]methyl)-1H-1,2,4-triazol-3(2H)-one]",Saturation concentration,[1],60 nM
same,effect of mild hepatic insufficiency on pharmacokinetics,[2]; Child-Pugh score of 5 to 6,does not affect to a clinically relevant degree
same,oral bioavailability,[2]; Emend capsule of 80 mg,67%
same,oral bioavailability,[2]; Emend capsule of 125 mg,59%
same,linearity of pharmacokinetics,[2]; clinical dose interval,non-linear pharmacokinetics
same,AUC0-24 h greater in elderly (≧65 years) than younger adults,"[2]; day 1, oral 125 mg Emend",21%
same,Cmax greater in elderly than younger adults,[2]; day 1,10%
same,AUC0-24 h greater in elderly (≧65 years) than younger adults,"[2]; day 5, 80 mg once a day",36%
same,Cmax greater in elderly than younger adults,[2]; day 5,24%
same,share of plasma radioactivity,"[2]; healthy young adults, over 72 hours after single 100 mg intravenous dose of [C14] prodrug",approximately 19%
same,increase in AUC0-∞ greater in proportion to the dose,"[2]; healthy young adults, single doses of 80 mg and 125 mg, postprandial",26%
same,metabolites identified in human plasma,[2]; human plasma,12
same,increase of AUC with food,[2]; oral capsule with standard breakfast of approximately 800 Kcal,up to 40%
same,Tmax,[2]; oral,approximately 4 hours
same,reduction of AUC0-∞ of total aprepitant with respect to healthy patients,"[2]; severe renal insufficiency (CrCl<30 ml/min), single dose of 240 mg of Emend",21%
same,reduction of Cmax with respect to healthy patients,"[2]; severe renal insufficiency, single dose of 240 mg of Emend",32%
same,Cmax greater in women than men,[2]; [4],16%
same,half-life greater in women than men,[2]; [4],25%
same,reduction of AUC0-∞ of total aprepitant,[2]; [5],42%
same,reduction of Cmax,[2]; [5],32%
same,Percent increase in TGFβ3 with respect to the control group,"[3]; bronchial tissue, Group 1, oral 10 mg/kg per day",672.56%
same,Percent increase in TGFβ3 with respect to the control group,"[3]; bronchial tissue, Group 2, oral 40 mg/kg per day",452.45%
same,Percent increase in TGFβ3 with respect to the control group,"[3]; bronchial tissue, Group 3, oral 80 mg/kg per day",345.32%
same,Percent increase in TGFβ3 with respect to the control group,"[3]; bronchial tissue, Group 4, oral 100 mg/kg per day",236.12%
same,% Med G5/C: percent increase in marker TGFβ with respect to the control group,"[3]; bronchial tissue, Group 5",604.34%
same,% Med G6/C: percent increase in marker TGFβ with respect to the control group,"[3]; bronchial tissue, Group 6",439.53%
same,% Med G7/C: percent increase in marker TGFβ with respect to the control group,"[3]; bronchial tissue, Group 7",234.56%
same,% Med G8/C: percent increase in marker TGFβ with respect to the control group,"[3]; bronchial tissue, Group 8",179.19%
same,Percent increase in TGFβ3 with respect to the control group,"[3]; laryngeal tissue, Group 1, oral 10 mg/kg per day","1,234.56%"
same,Percent increase in TGFβ3 with respect to the control group,"[3]; laryngeal tissue, Group 2, oral 40 mg/kg per day","1,009.78%"
same,Percent increase in TGFβ3 with respect to the control group,"[3]; laryngeal tissue, Group 3, oral 80 mg/kg per day",899.98%
same,Percent increase in TGFβ3 with respect to the control group,"[3]; laryngeal tissue, Group 4, oral 100 mg/kg per day",567.89%
same,Percent increase in TGFβ3 with respect to the control group,"[3]; laryngeal tissue, Group 5, inhalation 0.05 mg/kg per day","1,183.45%"
same,Percent increase in TGFβ3 with respect to the control group,"[3]; laryngeal tissue, Group 6, inhalation 0.1 mg/kg per day",702.33%
same,Percent increase in TGFβ3 with respect to the control group,"[3]; laryngeal tissue, Group 7, inhalation 0.2 mg/kg per day",305.32%
same,Percent increase in TGFβ3 with respect to the control group,"[3]; laryngeal tissue, Group 8, inhalation 0.4 mg/kg per day",132.22%
same,Percent increase in TGFβ3 with respect to the control group,"[3]; lung tissue, Group 1, oral 10 mg/kg per day",835.84%
same,Percent increase in TGFβ3 with respect to the control group,"[3]; lung tissue, Group 2, oral 40 mg/kg per day",655.71%
same,Percent increase in TGFβ3 with respect to the control group,"[3]; lung tissue, Group 3, oral 80 mg/kg per day",496.55%
same,Percent increase in TGFβ3 with respect to the control group,"[3]; lung tissue, Group 4, oral 100 mg/kg per day",374.47%
same,Percent increase in TGFβ3 with respect to the control group,"[3]; lung tissue, Group 5, inhalation 0.05 mg/kg per day",775.37%
same,Percent increase in TGFβ3 with respect to the control group,"[3]; lung tissue, Group 6, inhalation 0.1 mg/kg per day",427.90%
same,Percent increase in TGFβ3 with respect to the control group,"[3]; lung tissue, Group 7, inhalation 0.2 mg/kg per day",215.59%
same,Percent increase in TGFβ3 with respect to the control group,"[3]; lung tissue, Group 8, inhalation 0.4 mg/kg per day",169.46%
same,Percent increase in TGFβ3 with respect to the control group,"[3]; nasal cavity tissue, Group 1, oral 10 mg/kg per day","2,813.99%"
same,Percent increase in TGFβ3 with respect to the control group,"[3]; nasal cavity tissue, Group 2, oral 40 mg/kg per day","2,128.24%"
same,Percent increase in TGFβ3 with respect to the control group,"[3]; nasal cavity tissue, Group 3, oral 80 mg/kg per day","1,451.25%"
same,Percent increase in TGFβ3 with respect to the control group,"[3]; nasal cavity tissue, Group 4, oral 100 mg/kg per day","1,188.89%"
same,Percent increase in TGFβ3 with respect to the control group,"[3]; nasal cavity tissue, Group 5, inhalation 0.05 mg/kg per day","2,168.67%"
same,Percent increase in TGFβ3 with respect to the control group,"[3]; nasal cavity tissue, Group 6, inhalation 0.1 mg/kg per day","1,051.06%"
same,Percent increase in TGFβ3 with respect to the control group,"[3]; nasal cavity tissue, Group 7, inhalation 0.2 mg/kg per day",482.03%
same,Percent increase in TGFβ3 with respect to the control group,"[3]; nasal cavity tissue, Group 8, inhalation 0.4 mg/kg per day",158.62%
same,Percent increase in TGFβ3 with respect to the control group,"[3]; pharyngeal tissue, Group 1, oral 10 mg/kg per day",967.72%
same,Percent increase in TGFβ3 with respect to the control group,"[3]; pharyngeal tissue, Group 2, oral 40 mg/kg per day",879.34%
same,Percent increase in TGFβ3 with respect to the control group,"[3]; pharyngeal tissue, Group 3, oral 80 mg/kg per day",659.59%
same,Percent increase in TGFβ3 with respect to the control group,"[3]; pharyngeal tissue, Group 4, oral 100 mg/kg per day",456.45%
same,Percent increase in TGFβ3 with respect to the control group,"[3]; pharyngeal tissue, Group 5, inhalation 0.05 mg/kg per day",879.45%
same,Percent increase in TGFβ3 with respect to the control group,"[3]; pharyngeal tissue, Group 6, inhalation 0.1 mg/kg per day",543.45%
same,Percent increase in TGFβ3 with respect to the control group,"[3]; pharyngeal tissue, Group 7, inhalation 0.2 mg/kg per day",309.45%
same,Percent increase in TGFβ3 with respect to the control group,"[3]; pharyngeal tissue, Group 8, inhalation 0.4 mg/kg per day",112.43%
